# Counter-ions that a name gives are not always drawn.
# Experiments:
# [1] = molecular target: T1, labeled αSN (monomeric) (Homo sapiens, UniProt P37840, E130C/T54C); assay: smFRET measurements of αSN monomer conformation; conditions: αSN labeled at 54-130C; +20μM compound; mean ± standard deviation
# T1 construct: made in house; host or cells: Escherichia coli BL21(DE3)
# Description: (§1) SmFRET experiments were performed using two different labeled αSN constructs (residues 9–72 and residues 54–130) that report on intra-monomeric FRET (e.g., monomer conformation) of the N-terminal and C-terminal domains of αSN. […] We were not able to evaluate RO with smFRET, due to interactions of RO with the AlexaFluor-594 label.
# (§2) Single-molecule FRET measurements were carried out using ~30 pM of labeled αSN in 20 mM Tris pH 7.4 and 50 mM NaCl in 8-chambered Nunc coverslips (ThermoFisher) passivated with poly(ethylene glycol) poly(L-lysine) to reduce protein adsorption to the chambers. Measurements were made on a MicroTime 200 time-resolved confocal microscope (Picoquant) as described previously. Laser power was adjusted to ~30 μW before sample illumination. Fluorescence emission was collected through the objective and passed through a 150-μm diameter pinhole. Photons were separated by an HQ585LP dichroic in combination with ET525/50M and HQ600LP filters and detected by avalanche photodiodes. Photon traces were collected in 1-ms time bins for 1 h. A cutoff of 25 counts/ms was applied to discriminate between bursts arising from fluorescently labeled protein and background noise. The FRET efficiency (Eeff) was calculated using the SymphoTime 64 software. SmFRET histograms were fit with Gaussian distributions to determine the peak Eeff values. Each measurement was carried out three times and mean Eeff values are the average and SD of these measurements (Supplementary Table 2). Alignment of instrument and analysis were verified using smFRET reference standards consisting of 10, 14, and 18 base pair dsDNA labeled with Alexa 488 and Alex 594 with their 5’ and 3’ ends.
# [2] = molecular target: T2, labeled αSN (monomeric) (Homo sapiens, UniProt P37840, S9C/T72C); assay: smFRET measurements of αSN monomer conformation; conditions: αSN labeled at 9C-72C; +20μM compound; mean ± standard deviation
# T2 construct: made in house; host or cells: Escherichia coli BL21(DE3)
# Description: as §1, §2
# [3] = system: inter-protomeric and intra-protomeric αSN FRET biosensors in HEK293 cells; assay: Pilot HTS of the LOPAC library, fluorescence lifetime (FLT) of cellular αSN FRET biosensors; type: cell-based, human; conditions: 10 µM compound, 90 min; hit = FLT change >5 SD
# Description: Prior to each pilot HTS, FLT and emission spectrum were measured to verify signal level, basal FRET, coefficient of variance (CV), and similarity index. For each HTS, cells were dispensed into compound plates—1536-well (10 µL/well)—and incubated with the compounds (10 µM) or dimethyl sulfoxide (DMSO; 1%) for 90 min. FLT measurements were acquired with the FLT-PR. After deconvolving the instrument response function, a single exponential fit was used to determine the FLT for both the αSN cellular FRET biosensor (τDA) and the donor-only control biosensor (τD). FRET efficiency was determined by Eq. 1. CV was determined from control plates (N = 384 wells).
# Fluorescent compounds (FC) were flagged using a spectral similarity index filter, which evaluates the ratio of intensity from two bandwidths that span the donor emission spectrum and are excluded as potential false positives[45],[46],[49],[51],[66]. […] Compounds that changed FLT by >5 standard deviations (SD) were considered hits (Fig. 5, red data points).
# On each day of screening, the compound plates were equilibrated to room temperature (RT; 25 °C). The cells were harvested from the 100-mm plates by incubating with TrypLE (Invitrogen) for 2 min, washed three times in PBS by centrifugation at 200 × g, and filtered using 70-μm cell strainers (BD Falcon). Cell viability prior to screen was assessed using a trypan blue assay and confirmed to be >80%. Cells were diluted to 1.5E6 cells/mL. Expression of GFP-αSN and the αSN biosensors were confirmed by fluorescence microscopy prior to each screen (EvosFL-Auto microscope, Thermo Fisher Scientific, USA). During screening, cells (50 μL/well for 384-well; 10 μL/well for 1536-well) were dispensed by a Multidrop Combi liquid dispenser (Thermo, Pittsburg, PA, USA) into the assay plates containing the compounds and allowed to incubate at RT for 90 min before recording with the FLT-PR or SUPR (both instruments manufactured by Fluorescence Innovations Inc., both owned and provided by Photonic Pharma LLC), as described previously[46].
# Interfering compounds were flagged as potential false positives by a set of stringent FC filters based on spectral analysis of each well from the LOPAC screen[45],[46]. After removal of FCs, a histogram of the FLT distribution from all compounds in the screen was plotted and fit to a Gaussian curve to obtain the mean (µ) and SD (σ). A hit was defined as a compound that attenuated the FLT efficiency by >5σ relative to the mean µ (Supplementary Fig. 12).
# [4] = system: SH-SY5Y cells transfected with unlabeled WT αSN; assay: αSN expression levels in SH-SY5Y cells (immunoblot); type: cell-based, human; conditions: 1 μM compound; relative to DMSO
# Description: We investigated one potential MOA for compounds RO and DEM in our SH-SY5Y cytotoxicity model. These compounds might rescue αSN-induced cytotoxicity by modulating αSN expression[81],[82]. SH-SY5Y cells transfected with empty-vector or unlabeled WT αSN were treated with DMSO, RO, or DEM at 1 μM concentration. […] This effect may be due to prolonged survival of cells expressing higher levels of αSN, which would be lost in DMSO-treated samples or as a result of shifting monomer:oligomer ratios. Studies have shown that there is a fine balance in αSN expression, where too much can lead to aggregation, but αSN expression can also be neuroprotective[81],[83]–[86].
# Supplemental Figure 15. Rescue of αSN-induced cytotoxicity in SH-SY5Y cells is not driven by suppression of αSN expression. One potential MOA for our hit compounds could be reduction of αSN levels, thereby alleviating the αSN induced cytotoxicity. (a) Treatment of SH-SY5Y cells expressing either αSN or […]
# DMSO for both RO and DEM. (b) Quantification of a via densitometry analysis.
# (1 picture or pasted object on this page, not shown here)
Eeff (smFRET efficiency) [1],Eeff (smFRET efficiency) [2],Structure (SMILES),identified as hit in the LOPAC screen [3],total αSN expression levels [4]
0.58 ± 0.005,0.54 ± 0.013,"COC(=O)C1=C(C)NC(C)=C([N+](=O)[O-])C1c1ccccc1C(F)(F)F (racemic) [BAY, (±)-Bay K 8644]",,
0.60 ± 0.008,0.55 ± 0.005,"CN(C)[C@@H]1C(O)=C(C(N)=O)C(=O)[C@@]2(O)C(O)=C3C(=O)c4c(O)ccc(Cl)c4[C@@H](O)[C@H]3C[C@@H]12 [DEM, Demeclocycline HCl]",identified,no change
,,"Nc1ccc(-c2nc3ccc(-c4nc5ccc(N)cc5[nH]4)cc3[nH]2)cc1 [RO, Ro 90–7501]",,no change
